# Measurements from patent publication US12252531B2, “Methods of screening for high-affinity, isoform-selective TGFβ1 inhibitors” (Scholar Rock, Inc., priority 2018, dated 2025).
# B1: Ab6-mIgG1: chimeric antibody with the human V domains of Ab6 fused to mouse IgG1/kappa constant domains (protein)
# heavy chain: EVQLVESGGGLVQPGGSLRLSCTASGFTFSSFSMDWVRQAPGKGLEWVSYISPSADTIYYADSVKGRFTISRDNAKNTLYLQMNSLRAEDTAVYYCARGVLDYGDMLMPWGQGTLVTVSS
# light chain: DIQMTQSPSSLSASVGDRVTITCQASQDITNYLNWYQQKPGKAPKLLIYDASNLETGVPSRFSGSGSGTDFTFTISSLQPEDIATYYCQQADNHPPWTFGGGTKVEIK
# Key:
# [1] = Safety/toxicology study in rats; conditions: rat, in vivo
# Description: Animals were sacrificed on Day 29 and necropsies performed.
# Both halves were submitted for embedding.
# [2] = system: TGFβ downstream tonic signaling; conditions: non-diseased rat BAL; cited from earlier work
# [3] = system: intratumoral immune cells in MBT2 tumors; assay: MBT2 tumor immune contexture (flow cytometry, IHC, qPCR); format: in vivo, mouse; conditions: MBT2 tumors (FIG. 30F)
# Experimental: Each study group contained 12 mice with MBT2 tumors as described herein. Ab6-treatment group received the antibody weekly, on day 1 and day 8, at 10 mg/kg. Anti-PD1 treatment group was treated biweekly at 10 mg/kg per injection, on days 1, 4, 8 and 11, total of 20 mg/kg per week. […] On day 13, tumors were collected from the mice as shown above.
# Flow cytometric analysis: Tumor-associated immune cell subsets were also analyzed by tumor flow cytometry in MBT-2 tumors. Briefly, tumors were excised and weighed prior to dissociation using the Tumor Dissociation Kit for gentleMACS (Miltenyi). Samples were filtered through a 70 μm cell strainer to remove any aggregates. […] Flow cytometry was performed on a Attune NxT (ThermoFisher) and analyzed with FlowJo (BD Bioscience).
# For immunohistochemical analysis, tumors from six animals were cut in halves and fixed. […] FIG. 30E provides the quantitation of the IHC data, shown as % of CD8-positive cells of total nuclei. […]
Molecule,bone findings [1],incidence/severity of bone findings compared with pan-TGFβ antibody ([1]; po),inhibition of TGFβ downstream tonic signaling [2],phospho-SMAD3 staining near tumor vascular endothelium (IHC) [3]
c1ccc(-c2nn3c(c2-c2ccnc4cc(OCCN5CCOCC5)ccc24)CCC3)nc1 [LY2109761],macroscopic abnormally shaped sternum and microscopic increased thickness of the hypertrophic zone in the endplate of the sternum and physis of the femur and tibia,higher incidence and/or severity,shown to inhibit TGFβ downstream tonic signaling,
B1,,,,much diminished
